Test results from publication PMC5295762, “Verticillin A Inhibits Leiomyosarcoma and Malignant Peripheral Nerve Sheath Tumor Growth via Induction of Apoptosis” (Clinical & experimental pharmacology, 2016).
pEC50: −log10 of the molar value.

Tests used:
[1] = test system: HASMC (human aortic smooth muscle cells); experiment: MTS cell viability analysis, HASMC; assay type: cell-based
Experimental: (§1) MTS analysis was performed using CellTiter96 Aqueous Non-Radioactive Cell Proliferation Assay kit (Promega, Madison, WI, USA) as specified by the manufacturer. Cells were seeded at a density of 5,000 cells per well, and allowed to adhere overnight. Cellular viability was assessed 24 h after treatment with DMSO (control), or 10, 50, or 100 nM verticillin A, and absorbance was measured at 490 nm wavelength.
(§2) In vitro analyses were performed in triplicate. Mean ± SEM (standard error mean) calculations and statistical analyses were performed for all cell-based assays, and EC50 values were computed using GraphPad Prism version 6.00 (for Windows, GraphPad Software, La Jolla California USA, www.graphpad.com). All Student t tests performed were unpaired and two-sided. The average tumor volume (mm^3) and weight ([…]) for each study arm was measured and recorded. Mean ± SEM was calculated for each treatment group, and end-point analyses determined using unpaired two-sided t test was utilized to determine variances. *p ≤ 0.05; **p ≤ 0.01; ***p ≤ 0.001.

[2] = test system: HSC (human Schwann cells); experiment: MTS cell viability analysis, HSC; assay type: cell-based
Experimental: as §1, §2

MPNST724 cells [3] = experiment: MTS cell viability analysis, MPNST724; assay type: cell-based, human
Experimental: as §1, §2

S462 cells [4] = experiment: MTS cell viability analysis, S462; assay type: cell-based, human
Experimental: as §1, §2

SKLMS1 cells [5] = experiment: MTS cell viability analysis, SKLMS1; assay type: cell-based
Experimental: as §1, §2

LMS1 cells [6] = experiment: MTS cell viability analysis, LMS1; assay type: cell-based
Experimental: as §1, §2

ST88 cells = experiment: MTS cell viability analysis, ST88; assay type: cell-based, human; settings: 24 h
Experimental: as §1, §2

MPNST and LMS cell lines [7] = experiment: Clonogenic analysis; assay type: cell-based; settings: all doses, 24 h treatment then 10 days recovery
Experimental: Cells were seeded at 800 cells per well in a 6-well plate (9.5 cm^2) and allowed to attach overnight prior to treatment with DMSO or varying concentrations of verticillin A. Cells were treated for 24 h, then changed to recovery media and allowed to continue to grow for 10 days. Colonies were stained using 0.5% crystal violet solution in methanol for 30 min. Staining solution was removed, wells were washed with deionized H2O, and stained colonies were imaged and counted.

MPNST and LMS cell lines [8] = experiment: Cell cycle analysis (PI, FACS); assay type: cell-based; settings: MPNST and LMS cells, 24 h treatment
Experimental: Cells were synchronized by 16 h starvation prior to treatment with DMSO, 10, 50, or 100 nM of verticillin A for 24 h. Attached and floating cells were collected following treatment and centrifuged for 5 min at 2500 RPM. Supernatant was removed and cells were washed twice with cold PBS. Cells were centrifuged (2500 RPM/5 min) and resuspended in 70% ethanol and fixed overnight at −20° C. Cells were then centrifuged at (2500 RPM/5 min), and ethanol was removed. Subsequently, cells were resuspended in 400 µL PI stain (0.05 mg/mL/ 1 mg/mL sodium citrate/ 50 µL Triton-X-100/ 50 µL RNase A, brought to 50 mL with PBS) and analyzed via LSR II FACS analysis.

HSC = experiment: Cleaved caspase 3/7 activity, HSC; assay type: cell-based, human; settings: 24 h
Experimental: (§3) Apoptosis was measured by quantifying cleaved-caspase 3 and cleaved-caspase 7 activity using Cell Event Caspase 3/7 Green Detection Reagent (Life Technologies, Carlsbad, CA, USA) in the Incucyte Zoom system (Essen BioScience, Ann Arbor, MI, USA). Cells were plated at a density of 4,200 cells per well and allowed to adhere. The cells were then treated with DMSO or 10, 50, or 100 nM verticillin A for 24 h, and caspase activity was monitored using fluorescent Cell Event Caspase 3/7 Reagent (5 µM final concentration). Endpoint analysis was performed in each well using a final concentration of 10 µM Vybrant DyeCycle Green Stain (Life Technologies, Carlsbad, CA, USA) in complete DMEM. Apoptosis was confirmed using the Apoptosis Detection Kit (BD Pharmagen, San Diego, CA, USA) in complete DMEM. Per supplier instructions, 1 × 10^6 cells/mL were stained with 5 µL Annexin V-FITC and 5 µL propidium iodide following 24 h treatment with DMSO or 10, 50, or 100 nM verticillin A and analyzed via FACS analysis (LSR II, BD Pharmagen, San Diego, CA, USA).

HASMC = experiment: Cleaved caspase 3/7 activity, HASMC; assay type: cell-based, human; settings: 24 h
Experimental: as §3

MPNST and LMS cell lines [9] = experiment: Cleaved caspase 3/7 activity, MPNST and LMS cell lines; assay type: cell-based; settings: all MPNST and LMS cell lines
Experimental: as §3

LMS1 cells [10] = experiment: Annexin V/PI FACS analysis, LMS1; assay type: cell-based; settings: LMS1, 24 h treatment, concentration not given
Experimental: as §3

MPNST724 cells [11] = experiment: Annexin V/PI FACS analysis, MPNST724; assay type: cell-based, human; settings: MPNST724, 24 h treatment, concentration not given
Experimental: as §3

SKLMS1 cells [12] = experiment: Annexin V/PI FACS analysis, SKLMS1; assay type: cell-based; settings: SKLMS1, 24 h treatment, concentration not given
Experimental: as §3

S462 cells [13] = experiment: Annexin V/PI FACS analysis, S462; assay type: cell-based, human; settings: S462, 24 h treatment, concentration not given
Experimental: as §3

MPNST724 xenografts = experiment: MPNST724 xenograft model; assay type: in vivo, SCID mice
Experimental: Six week old female SCID mice (Taconic Biosciences, Hudson, NY, USA; model ^#CB17SC) were injected subcutaneously with 1 × 10^6 MPNST724 cells into the flank. Once tumors reached 0.5 cm, mice were allocated into three arms (10 mice per arm) and treatment via intraperitoneal injections was initiated: Vehicle (5% ethanol/15% cremophor EL/80% PBS), verticillin A (0.25 mg/kg every other day), or verticillin A (0.5 mg/kg every other day). Mice were weighed and tumors were measured twice weekly. Mice were euthanized once tumors in the control group grew to ~1.5 cm. Final tumor volumes and weights were measured, and tumors were processed for IHC analysis.
Ki67 (Vector Laboratories) and cleaved caspase 3 (Cell Signaling) antibodies were used to identify the effect of verticillin A on proliferation and apoptosis, respectively. IHC staining was conducted at Nationwide Children’s Hospital (Columbus, OH) and analysis was performed at the Polaris Innovation Center (The Ohio State University, Columbus, OH, USA). IHC samples and analyses were verified by pathologist, O. Hans Iwenofu, M.D. (The Ohio State University, Department of Pathology, Columbus, OH, USA).
as §2

SW620 colon cancer cells = test system: SW620 colon cancer cells; design: method as in PMID 21911457; settings: cited from earlier work
[14] = test system: HepG2 liver carcinoma cells; design: method as in PMID 21911457; settings: cited from earlier work
[15] = Homo sapiens, MTS, 24 h treatment
[16] = 0.5 mg/kg intraperitoneal every other day, day 11
[17] = MPNST724 xenograft tumors, 0.5 mg/kg

SMILES: CN1C(=O)C23SSC1(C)C(=O)N2C1Nc2ccccc2C1(C12c4ccccc4NC1N1C(=O)C4(C)SSC1(C(=O)N4C)C2O)C3O (stereo not shown) [verticillin A]
- effect on cell viability ([1]; 100 nM): no effect
- pEC50 [1, 15]: 6.60
- pEC50 [2, 15]: 7.19
- toxicity to normal cells ([2]; highest treatment dose): toxicity was seen
- pEC50 (MPNST724 cells [3]; Homo sapiens, MPNST724, MTS, 24 h treatment): 6.90
- effect on cell viability (MPNST724 cells [3]; MPNST724, 10 nM, 24 h): exhibited tolerance
- cellular growth reduction (MPNST724 cells [3]; MPNST724, 100 nM, 24 h): 39.7%
- pEC50 (S462 cells [4]; Homo sapiens, S462, MTS, 24 h treatment): 7.58
- effect on cell viability (S462 cells [4]; S462, 10 nM, 24 h): marked inhibitory effect
- cellular growth reduction (S462 cells [4]; S462, 100 nM, 24 h): 88.7%
- pEC50 (SKLMS1 cells [5]; Homo sapiens, SK-LMS-1, SKLMS1, MTS, 24 h treatment): 7.13
- effect on cell viability (SKLMS1 cells [5]; SKLMS1, 10 nM, 24 h): exhibited tolerance
- cellular growth reduction (SKLMS1 cells [5]; SKLMS1, 100 nM, 24 h): 57%
- effect on cell viability (LMS1 cells [6]; LMS1, 10 nM, 24 h): marked inhibitory effect
- cellular growth reduction (LMS1 cells [6]; LMS1, 100 nM, 24 h): 96.7%
- pEC50 (LMS1 cells [6]; LMS1, MTS, 24 h treatment): 7.97
- effect on cell viability (ST88 cells; ST88, 10 nM): marked inhibitory effect
- cellular growth reduction (ST88 cells; ST88, 100 nM): 72.7%
- colony formation capacity (MPNST and LMS cell lines [7]): unable to form colonies
- cell cycle arrest (MPNST and LMS cell lines [8]): No substantial arrest in cell cycle progression
- cleaved caspase 3/7 activity (HSC): 1.1 fold change
- cleaved caspase 3/7 activity (HASMC): 1.2 fold change
- increase in cleaved caspase 3/7 activity (MPNST and LMS cell lines [9]): nearly two-fold increase
- apoptosis (Annexin V/PI) (LMS1 cells [10]): 73.4 ± 12.7%
- apoptosis (Annexin V/PI) (MPNST724 cells [11]): 34 ± 4.3%
- apoptosis (Annexin V/PI) (SKLMS1 cells [12]): 29.4 ± 2.3%
- apoptosis (Annexin V/PI) (S462 cells [13]): 25.9 ± 3.75%
- tumor volume (MPNST724 xenografts; 0.25 mg/kg intraperitoneal every other day, day 11): 355.89 mm^3
- verticillin A-induced mortality (MPNST724 xenografts; 0.5 mg/kg arm, 10 mice per arm): 2 mice
- toxicity signs in mice (MPNST724 xenografts; 0.5 mg/kg intraperitoneal every other day): reduced grooming tendencies and mild weight loss
- tumor volume (MPNST724 xenografts; [16]): 160.92 mm^3
- tumor weight (MPNST724 xenografts; [16]): 0.2 g
- decrease in Ki67 proliferation marker expression (IHC) (MPNST724 xenografts; [17]): ~40%
- increase in cleaved caspase 3 expression (IHC) (MPNST724 xenografts; [17]): 5.5 fold
- toxicity signs in mice (MPNST724 xenografts; lower dose (0.25 mg/kg)): Minor signs of toxicity
- cell cycle effect (SW620 colon cancer cells): induce G2 cell cycle arrest
- cell cycle effect [14]: no changes in cell cycle progression
